According to ChEMBL document CHEMBL1153484, “Design, synthesis and evaluation of N-[(3S)-pyrrolidin-3-yl]benzamides as selective noradrenaline reuptake inhibitors: CNS penetration in a more polar template” (Bioorg Med Chem Lett, 2009):

Legend:
[1] = molecular target: Voltage-gated inwardly rectifying potassium channel KCNH2 (Homo sapiens, UniProt Q12809); assay: Displacement of [3H]dofetilide from human ERG
[2] = molecular target: Sodium-dependent dopamine transporter (Homo sapiens, UniProt Q01959); assay: Displacement of radioligand from human recombinant DAT expressed in HEK293 cells by scintillation proximity assay; type: cell-based
Chain of Sodium-dependent dopamine transporter (Q01959 whole entry): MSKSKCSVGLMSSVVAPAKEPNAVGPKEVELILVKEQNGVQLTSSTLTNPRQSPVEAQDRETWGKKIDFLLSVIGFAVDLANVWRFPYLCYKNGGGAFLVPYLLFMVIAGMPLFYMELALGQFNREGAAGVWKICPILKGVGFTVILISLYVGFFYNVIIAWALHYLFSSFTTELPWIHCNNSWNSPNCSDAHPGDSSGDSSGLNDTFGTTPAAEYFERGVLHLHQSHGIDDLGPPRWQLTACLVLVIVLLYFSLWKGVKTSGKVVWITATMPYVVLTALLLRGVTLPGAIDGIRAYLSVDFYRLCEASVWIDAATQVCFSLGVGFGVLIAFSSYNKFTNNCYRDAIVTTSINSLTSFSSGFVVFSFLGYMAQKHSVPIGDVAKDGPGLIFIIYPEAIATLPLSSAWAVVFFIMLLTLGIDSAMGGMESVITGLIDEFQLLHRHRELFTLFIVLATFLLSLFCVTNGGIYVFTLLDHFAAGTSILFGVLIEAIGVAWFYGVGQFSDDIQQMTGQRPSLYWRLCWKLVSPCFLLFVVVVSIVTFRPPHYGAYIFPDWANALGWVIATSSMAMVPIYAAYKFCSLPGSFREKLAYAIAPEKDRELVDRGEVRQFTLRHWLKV

[3] = molecular target: Sodium-dependent noradrenaline transporter (Homo sapiens, UniProt P23975); assay: Displacement of [3H]nisoxetine from human recombinant NET expressed in HEK293 cells by scintillation proximity assay; type: cell-based
Chain of Sodium-dependent noradrenaline transporter (P23975 whole entry): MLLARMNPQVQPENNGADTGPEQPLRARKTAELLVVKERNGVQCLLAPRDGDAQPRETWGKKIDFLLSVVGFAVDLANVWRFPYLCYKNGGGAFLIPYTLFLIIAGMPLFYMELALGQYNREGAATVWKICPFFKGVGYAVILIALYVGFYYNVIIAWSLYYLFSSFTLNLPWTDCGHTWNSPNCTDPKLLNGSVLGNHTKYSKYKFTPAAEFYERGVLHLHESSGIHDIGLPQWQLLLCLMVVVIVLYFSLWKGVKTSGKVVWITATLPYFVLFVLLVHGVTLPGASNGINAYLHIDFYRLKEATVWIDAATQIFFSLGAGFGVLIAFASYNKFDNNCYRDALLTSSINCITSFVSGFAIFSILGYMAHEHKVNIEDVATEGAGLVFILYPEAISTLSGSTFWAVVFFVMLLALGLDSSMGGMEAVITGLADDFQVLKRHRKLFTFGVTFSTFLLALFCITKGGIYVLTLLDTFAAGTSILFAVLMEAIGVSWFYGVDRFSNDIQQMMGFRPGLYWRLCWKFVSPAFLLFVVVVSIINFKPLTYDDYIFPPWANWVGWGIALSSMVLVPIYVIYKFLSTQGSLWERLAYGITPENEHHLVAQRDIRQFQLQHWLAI

[4] = molecular target: Sodium-dependent serotonin transporter (Homo sapiens, UniProt P31645); assay: Displacement of [3H]citalopram from human recombinant SERT expressed in HEK293 cells by scintillation proximity assay; type: cell-based
Chain of Sodium-dependent serotonin transporter (P31645 whole entry): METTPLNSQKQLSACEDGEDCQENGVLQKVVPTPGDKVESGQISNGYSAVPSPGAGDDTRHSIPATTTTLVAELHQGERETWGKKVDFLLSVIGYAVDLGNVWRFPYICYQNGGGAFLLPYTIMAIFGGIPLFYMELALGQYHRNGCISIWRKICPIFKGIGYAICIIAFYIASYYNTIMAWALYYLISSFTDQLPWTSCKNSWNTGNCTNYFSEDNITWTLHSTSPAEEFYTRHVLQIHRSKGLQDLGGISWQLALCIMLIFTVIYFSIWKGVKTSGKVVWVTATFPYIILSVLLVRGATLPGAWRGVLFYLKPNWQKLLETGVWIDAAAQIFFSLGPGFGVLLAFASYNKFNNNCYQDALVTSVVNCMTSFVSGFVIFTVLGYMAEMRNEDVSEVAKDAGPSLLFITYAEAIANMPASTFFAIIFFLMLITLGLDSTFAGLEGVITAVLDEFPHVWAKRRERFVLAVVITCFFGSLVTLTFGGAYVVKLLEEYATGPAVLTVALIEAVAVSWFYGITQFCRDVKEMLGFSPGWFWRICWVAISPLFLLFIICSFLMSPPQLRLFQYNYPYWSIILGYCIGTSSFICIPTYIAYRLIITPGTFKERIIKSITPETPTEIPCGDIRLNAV

[5] = Intrinsic clearance in human liver microsomes; type: ADME, Microsome
Cytochrome P450 2D6 = Cytochrome P450 2D6 (Homo sapiens, UniProt P10635); assay: Inhibition of CYP2D6; type: ADME
Chain of Cytochrome P450 2D6 (P10635 whole entry): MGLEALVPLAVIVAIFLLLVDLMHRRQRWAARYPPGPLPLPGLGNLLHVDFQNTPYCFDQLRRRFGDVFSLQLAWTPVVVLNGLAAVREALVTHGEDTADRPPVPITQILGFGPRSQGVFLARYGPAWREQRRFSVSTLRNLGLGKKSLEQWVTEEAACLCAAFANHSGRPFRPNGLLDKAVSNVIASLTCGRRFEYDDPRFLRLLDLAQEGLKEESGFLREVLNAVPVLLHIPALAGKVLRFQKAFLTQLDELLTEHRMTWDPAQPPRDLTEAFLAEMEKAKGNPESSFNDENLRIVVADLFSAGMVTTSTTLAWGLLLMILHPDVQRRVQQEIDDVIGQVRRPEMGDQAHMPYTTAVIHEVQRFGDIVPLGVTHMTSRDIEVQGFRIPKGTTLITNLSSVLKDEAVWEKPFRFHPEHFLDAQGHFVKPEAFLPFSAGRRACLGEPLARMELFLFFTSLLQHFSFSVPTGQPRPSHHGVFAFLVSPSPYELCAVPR

Chain of Voltage-gated inwardly rectifying potassium channel KCNH2 (Q12809 whole entry): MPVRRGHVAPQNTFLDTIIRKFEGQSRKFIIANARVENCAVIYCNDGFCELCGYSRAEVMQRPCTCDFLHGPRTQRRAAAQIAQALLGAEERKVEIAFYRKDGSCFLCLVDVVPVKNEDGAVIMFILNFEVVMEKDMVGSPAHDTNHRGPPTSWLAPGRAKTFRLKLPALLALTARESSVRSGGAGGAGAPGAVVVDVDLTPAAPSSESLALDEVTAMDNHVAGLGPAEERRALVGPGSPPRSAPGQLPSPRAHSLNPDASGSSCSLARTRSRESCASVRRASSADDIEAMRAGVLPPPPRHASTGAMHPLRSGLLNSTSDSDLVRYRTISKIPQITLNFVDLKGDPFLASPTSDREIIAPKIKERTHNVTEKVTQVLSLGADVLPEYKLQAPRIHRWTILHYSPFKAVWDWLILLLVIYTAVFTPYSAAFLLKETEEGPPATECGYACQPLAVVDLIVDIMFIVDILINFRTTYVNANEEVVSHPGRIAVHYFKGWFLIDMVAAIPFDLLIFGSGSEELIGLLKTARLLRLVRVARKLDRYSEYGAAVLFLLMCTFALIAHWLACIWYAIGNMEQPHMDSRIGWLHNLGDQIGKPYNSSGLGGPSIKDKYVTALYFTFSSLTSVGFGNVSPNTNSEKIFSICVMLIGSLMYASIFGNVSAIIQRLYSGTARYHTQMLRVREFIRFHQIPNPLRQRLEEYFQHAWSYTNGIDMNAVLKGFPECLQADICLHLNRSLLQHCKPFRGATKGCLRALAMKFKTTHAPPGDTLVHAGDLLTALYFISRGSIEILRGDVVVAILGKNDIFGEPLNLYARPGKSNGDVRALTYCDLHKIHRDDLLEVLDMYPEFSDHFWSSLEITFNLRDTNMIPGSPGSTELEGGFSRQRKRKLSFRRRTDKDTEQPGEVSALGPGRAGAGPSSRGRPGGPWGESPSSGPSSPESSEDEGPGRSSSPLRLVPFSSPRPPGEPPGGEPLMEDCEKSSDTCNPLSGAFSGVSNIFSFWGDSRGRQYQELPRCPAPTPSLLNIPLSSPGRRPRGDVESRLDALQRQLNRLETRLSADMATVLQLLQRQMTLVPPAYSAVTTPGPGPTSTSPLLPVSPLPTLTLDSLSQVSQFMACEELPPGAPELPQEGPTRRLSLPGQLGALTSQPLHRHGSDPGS

| Compound | IC50 [1] [nM] | Ki [2] [nM] | Ki [3] [nM] | Ki [4] [nM] | microsomal CLint [5] [µL/min/mg] | IC50 (Cytochrome P450 2D6) [nM] |
| --- | --- | --- | --- | --- | --- | --- |
| CC(C)N(C(=O)c1ccccc1C(F)(F)F)[C@H]1CCNC1 | > 20000 | > 10000 | 172 | 457 |  |  |
| O=C(c1ccccc1Cl)N(CC1CCC1)[C@H]1CCNC1 |  | 1360 | 19 | 39 |  |  |
| CN(C(=O)c1ccccc1Oc1ccccc1)[C@H]1CCNC1 | 9210 | > 3160 | 61 | 661 |  |  |
| O=C(c1ccccc1Oc1ccccc1)N(C1CCC1)[C@H]1CCNC1 |  | > 10000 | 13 | 222 | < 7 |  |
| CCc1ccccc1C(=O)N(CC1CCC1)[C@H]1CCNC1 |  | 2680 | 29 | 237 |  |  |
| O=C(c1ccccc1C1CCCC1)N(CC1CCC1)[C@H]1CCNC1 |  | 3720 | 18 | 802 | 60 |  |
| CC(C)c1ccccc1C(=O)N(CC1CCCC1)[C@H]1CCNC1 | 2350 | 3470 | 18 | 330 |  |  |
| O=C(c1ccccc1Oc1ccccc1)N(CC1CCC1)[C@@H]1CCNC1 |  | 4100 | 38 | 587 | < 8 |  |
| CCCN(C(=O)c1ccccc1C(C)C)[C@H]1CCNC1 |  | > 10000 | 92 | 5210 |  |  |
| CSc1ccccc1C(=O)N(CC1CCC1)[C@H]1CCNC1 | > 20000 | 3040 | 8 | 179 | < 7 |  |
| O=C(c1ccccc1C(F)(F)F)N(CC1CC1)[C@H]1CCNC1 | > 20000 | > 10000 | 30 | 581 |  |  |
| O=C(c1ccccc1Oc1ccccc1)N(CC1CCC1)[C@H]1CCNC1 | 760 | > 10000 | 7 | 151 | < 7 | 65 |
| Cc1ccccc1C(=O)N(CC1CCC1)[C@H]1CCNC1 | > 20000 | 2340 | 72 | 118 |  |  |
| CCN(C(=O)c1ccccc1Oc1ccccc1)[C@H]1CCNC1 | 5030 | 3570 | 9 | 1610 | < 7 | > 30000 |
| CC(C)c1ccccc1C(=O)N(C1CCC1)[C@H]1CCNC1 |  | > 10000 | 43 | 776 |  |  |
| O=C(c1ccccc1C(F)(F)F)N(c1ccccc1)[C@H]1CCNC1 | > 20000 | 3130 | 28 | 113 | < 7 | > 3000 |
| CNCc1cnc(C)cc1Oc1ccccc1Oc1ccccc1 | 11200 |  |  |  | < 7 |  |
| CC(C)CN(C(=O)c1ccccc1Oc1ccccc1)[C@H]1CCNC1 |  | > 10000 | 8 | 160 | < 7 |  |
| CSc1ccccc1C(=O)N(c1ccccc1)[C@H]1CCNC1 | > 20000 | 3440 | 19 | 64 |  |  |

| Compound | IC50 [1] [nM] | Ki [2] [nM] | Ki [3] [nM] | Ki [4] [nM] | microsomal CLint [5] [µL/min/mg] | IC50 (Cytochrome P450 2D6) [nM] |
| --- | --- | --- | --- | --- | --- | --- |
| O=C(c1ccccc1C(F)(F)F)N(CC1CCC1)[C@@H]1CCNC1 |  | 3960 | 1120 | 1650 |  |  |
| CC(C)c1ccccc1C(=O)N(CC1CC1)[C@H]1CCNC1 | > 17600 | > 10000 | 31 | 2870 |  |  |
| CSc1ccccc1C(=O)N(C1CCCCC1)[C@H]1CCNC1 | 2270 | 2950 |  | 16 |  |  |
| CC(C)C(=O)N(Cc1ccccc1-c1ccccc1)[C@H]1CCNC1 | 3020 |  |  |  |  |  |
| O=C(c1ccccc1C(F)(F)F)N(CC1CCCC1)[C@H]1CCNC1 | > 13500 | 2750 | 24 | 109 | < 7 |  |
| CC(C)CN(C(=O)c1ccccc1-c1ccccc1)[C@H]1CCNC1 | 1440 | > 10000 | 294 | 654 |  |  |
| O=C(c1ccccc1Oc1ccccc1)N(c1ccccc1)[C@H]1CCNC1 |  | 4650 |  | 68 | < 7 |  |
| CCOc1ccccc1C(=O)N(CC1CCC1)[C@H]1CCNC1 | > 16800 | 2650 | 22 | 348 | < 7 |  |
| CC(C)c1ccccc1C(=O)N(CC1CCC1)[C@H]1CCNC1 | > 18200 | 2040 | 10 | 857 | < 9 | 3170 |
| CCOC(=O)N(Cc1ccccc1-c1ccccc1)[C@H]1CCNC1 |  |  |  |  | < 7 |  |
| CSc1ccccc1C(=O)N(C1CCC1)[C@H]1CCNC1 | > 20000 | > 10000 | 16 | 62 | < 7 | > 30000 |
| O=C(c1ccccc1C(F)(F)F)N(C1CCC1)[C@H]1CCNC1 | > 10000 | > 10000 | 60 | 210 | < 7 |  |
| O=C(C1CCC1)N(Cc1ccccc1C(F)(F)F)[C@H]1CCNC1 |  | > 10000 | 148 | 187 | < 7 |  |
| CCCN(C(=O)c1ccccc1SC)[C@H]1CCNC1 | > 20000 | 3110 | 37 | 1090 |  |  |
| CC(C)c1ccccc1C(=O)N(CC1CCC1)[C@@H]1CCNC1 |  | > 3160 | 825 | 1990 |  |  |
| CSc1ccccc1C(=O)N(C1CCCC1)[C@H]1CCNC1 | > 18700 | 4770 | 9 | 36 |  |  |
| CCSc1ccccc1C(=O)N(CC1CCC1)[C@H]1CCNC1 | 7570 | 3670 | 6 | 266 | 8 | 480 |
| CC(C)c1ccccc1C(=O)N(C1CCCC1)[C@H]1CCNC1 |  | > 10000 | 32 | 663 |  |  |
| CSc1ccccc1C(=O)N(CC1CCC1)[C@@H]1CCNC1 |  | 3470 | 572 | 1080 |  |  |
